In patent US20250127755A1, “PHARMACOLOGICAL DEPLETION OF HEME FOR THE TREATMENT OF MYELODYSPLASTIC SYNDROME” (THE SCRIPPS RESEARCH INSTITUTE, priority 2021, published 2025):
Each block holds one compound with its values, some of them ahead of it.

Legend:
MDS-L cells [1] = assay: MDS-L differentiation assay (GlyA positivity, 384-well FACS-based); details: for Maximal MDS-LGlyA fold induction: human; for EC50: read-out: MDS-L GlyA induction EC50; for inducing differentiation to more terminal blood lineages (GlyA immunopositivity): 384-well FACS-based assay
Experimental: MDS-L differentiation assay. Given a limited number of patient samples and the low yield from each biopsy, it is not tractable to conduct high-throughput screens with primary cells.
To establish a screening assay, we selected known differentiation inducers of acute myeloid leukemia cells including retinoic acid (ATRA), Brequinar, and phorbol 12-myristate 13-acetate (PMA).
MDS-L were cultured in RPMI (17-105-CV, Corning) without phenol red and supplemented with 2 mM glutamine and 10% FBS. Cells first expanded in IL-3 until 70% confluence then pre-conditioned for 14 days with IL-3 (200-03, PeproTech), GCSF (300-23, PeproTech), and EPO (287-TC, R&D Systems) to promote erythroid and myeloid differentiation. A density of 10000 cells per well were used in phenotypic assays. MDSL cells were spun and treatment media was replaced with media containing APC Anti-CD235a (GlyA) (551336. BD Biosciences) (1.25 μL per 50 μL test) and incubated for 1 hour at 4° C. Cells were washed then counter stained with SYTOX-Green 1 μM per 100 μL prior to flow cytometry, analysis. Dose response and pharmacological assays were analyzed using a ZE5 Cell Analyzer (BioRad) equipped with Everest software. Single, live, cells were analyzed for GlyA expression using FlowJo v10.7.2 software.

MDS-L cells [2] = assay: Heme levels of MDS-L cells; assay type: cell-based; details: over relevant time periods, FIG. 4B
Experimental: FIG. 4A-FIG. 4C. Heme depletion induces terminal differentiation of MDS-L cells. A: Relative induction of GlyA positive MDS-L cells in response to treatment for 96 hours with the indicated concentrations of NMPP. B: Heme levels of MDS-L cells treated with the indicated compounds. C: Relative induction of GlyA positive cells after 96-hour treatment with artemisone and hemin.
An additional consequence of this mechanism is the alkylation of artemisinin to heme, resulting in its functional inactivation. Because we found no other reactive oxygen species (ROS)-inducers or alkylators as active hits from the screen, we reasoned that heme depletion is a way in which artemisinins promote differentiation of this cellular population.

MDS-L cells [3] = assay: CFU assays of MDS-L cells; assay type: cell-based
MDS-L cells [4] = assay: Loss of CD71; assay type: cell-based
MDS-L cells [5] = assay: Induction of apoptosis; assay type: cell-based; details: below 20 μM

Maximal MDS-LGlyA fold induction (MDS-L cells [1]): 7.02 fold | EC50 (MDS-L cells [1]): 1740 nM
Compound: CC(C)(N)CNC(=O)C[C@H]1CC[C@]2(CC1)OO[C@]1(O2)[C@@H]2C[C@H]3C[C@@H](C2)C[C@@H]1C3 [Arterolane (OZ-277), Arterolane]

Compound: Cc1c(-c2ccc(-c3ccccc3F)cc2)nc2ccc(F)cc2c1C(=O)O [Brequinar]
inducing differentiation to more terminal blood lineages (GlyA immunopositivity) (MDS-L cells [1]; MDS-L cells): efficacious

Compound: CCCCCCCCCCCCCC(=O)O[C@@H]1[C@@H](C)[C@@]2(O)[C@@H](C=C(CO)C[C@]3(O)C(=O)C(C)=C[C@@H]23)[C@@H]2C(C)(C)[C@]12OC(C)=O [PMA, phorbol 12-myristate 13-acetate]
inducing differentiation to more terminal blood lineages (GlyA immunopositivity) (MDS-L cells [1]; MDS-L cells): efficacious

Compound: N-methylprotoporphyrin [NMPP]
GlyA positivity in MDS-L cells (MDS-L cells [1]; treatment for 96 hours, FIG. 4A): increase | levels of labile heme in MDS-L cells (MDS-L cells [2]): efficiently reduced

Maximal MDS-LGlyA fold induction (MDS-L cells [1]): 6.84 fold | EC50 (MDS-L cells [1]): 150 nM
Compound: C[C@H]1[C@H](N2CCS(=O)(=O)CC2)O[C@@H]2O[C@@]3(C)CC[C@H]4[C@H](C)CC[C@@H]1[C@@]24OO3 [Artemisone]
potential to induce differentiation of MDS-L cells on addition of exogenous heme (hemin) (MDS-L cells [1]; 96-hour treatment with artemisone and hemin, FIG. 4C): suppressed | number of BFU-E, CFU-GM and CFU-GEMM type colonies (MDS-L cells [3]): decreasing | terminal differentiation of MDS-L cells to CFU-Es (MDS-L cells [3]): efficaciously induced | loss of CD71 (MDS-L cells [4]): efficaciously promoted | induction in apoptosis (MDS-L cells [5]): no significant induction | levels of labile heme in MDS-L cells (MDS-L cells [2]): efficiently reduced

Maximal MDS-LGlyA fold induction (MDS-L cells [1]): 7.09 fold | EC50 (MDS-L cells [1]): 610 nM
Compound: C[C@H]1[C@@H](O)O[C@@H]2O[C@@]3(C)CC[C@H]4[C@H](C)CC[C@@H]1[C@@]24OO3 [Dihydroarte misin, dihydroartemisinin]

Maximal MDS-LGlyA fold induction (MDS-L cells [1]): 7.26 fold | EC50 (MDS-L cells [1]): 30 nM
Compound: C[C@H]1[C@@H](OCc2ccc(C(=O)O)cc2)O[C@@H]2O[C@@]3(C)CC[C@H]4[C@H](C)CC[C@@H]1[C@@]24OO3 [Artelinic acid (artelinate), Artelinic acid]

Maximal MDS-LGlyA fold induction (MDS-L cells [1]): 7.51 fold | EC50 (MDS-L cells [1]): 850 nM
Compound: C[C@H]1[C@H](OC(=O)CCC(=O)O)O[C@@H]2O[C@@]3(C)CC[C@H]4[C@H](C)CC[C@@H]1[C@@]24OO3 (stereo in doubt) [Artesunate]

Maximal MDS-LGlyA fold induction (MDS-L cells [1]): 3.82 fold | EC50 (MDS-L cells [1]): 580 nM
Compound: CCO[C@H]1O[C@@H]2O[C@@]3(C)CC[C@H]4[C@H](C)CC[C@@H]([C@H]1C)[C@@]24OO3 [Arteether]
number of BFU-E, CFU-GM and CFU-GEMM type colonies (MDS-L cells [3]): decreasing | terminal differentiation of MDS-L cells to CFU-Es (MDS-L cells [3]): efficaciously induced | loss of CD71 (MDS-L cells [4]): efficaciously promoted | induction in apoptosis (MDS-L cells [5]): no significant induction

Maximal MDS-LGlyA fold induction (MDS-L cells [1]): 3.71 fold | EC50 (MDS-L cells [1]): 5650 nM
Compound: c1cc([C@H]2CC[C@]3(CC2)OOC2(O3)[C@@H]3C[C@H]4C[C@H](C[C@@H]2C4)C3)ccc1OCCN1CCOCC1 (stereo partly drawn) [Artefenomel (OZ-439), Artefenomel]

Compound: C[C@@H]1CC[C@H]2[C@@H](C)C(=O)O[C@@H]3O[C@@]4(C)CC[C@@H]1[C@]32O4 [2-deoxy-artemisinin]
activity in differentiation assays (MDS-L cells [1]): inactive

Compound: CC1=C(/C=C/C(C)=C/C=C/C(C)=C/C(=O)O)C(C)(C)CCC1 [ATRA, retinoic acid]
cytotoxicity as readout by live dead cell gating (MDS-L cells [1]; MDS-L cells, FIG. 2): minimal cytotoxicity
